From patent US5952335A, “Fused polycyclic heterocycle derivatives” (Eisai Co., Ltd., priority 1995, dated 1999)
Structures can show the parent of a compound that is named as a salt. Where two headings read alike, the source gives them in different places.

Columns and labels:
[1] = system: MX-1 (Human Mammary Cancer); experiment: in vivo Antitumor Test on MX-1 (Human Mammary Cancer) transplanted in nude mice; conditions: Mus musculus, ip, 528 h, i.p.; for responders at 25 mg/kg / inhibition in vivo at 25 mg/kg: 25 mg/kg/day
Experimental: MX-1 tumor pieces (about 1 mm^3) were subcutaneously transplanted into the side part of each nude mouse (BALB/C.nu/nu, 6 to 7 weeks, female). A compound of the present invention was dissolved in a 5% solution of glucose. When the tumor volume reached 50 mm^3 (on the about 10th day after the transplantation), the solution of the compound was intraperitoneally administered to the animals once a day in accordance with each schedule. On the other hand, a 5% solution of glucose was administered to the control group. The control group had 10 animals, while each test group had 5 animals. On the 22nd day after the transplantation, tumors were taken out and weighed. The tumor multiplication inhibitory ratio of each test group to the control group was determined in accordance with the following formula: [formula] wherein T means the average tumor weight of the test group; and C means the average tumor weight of the control group.

[2] = system: M5076 (Mouse Reticulum Cell Sarcoma); experiment: in vivo Antitumor Test on M5076 (Mouse Reticulum Cell Sarcoma) transplanted in BDF1 mice; conditions: M5076, ip, 504 h, i.p.; for survival rate on day 21 at 25 mg/kg / inhibition in vivo at 25 mg/kg: 25 mg/kg/day, d9 after transplantation
Experimental: M5076 cells (1×10^6 /animal) were subcutaneously transplanted into the side part of each BDF1 mouse (aged 6 to 7 weeks, female). A compound of the present invention was dissolved in a 5% solution of glucose. From the next day of the transplantation, the solution of the compound was intraperitoneally administered to the animals once a day in accordance with each schedule. On the other hand, a 5% solution of glucose was administered to the control group. The control group had 10 animals, while each test group had 5 animals.
On the 21st day after the transplantation, tumors were taken out and weighed. The tumor multiplication inhibitory ratio of each test group to the control group was determined in accordance with the following formula: [formula] wherein T means the average tumor weight of the test group; and C means the average tumor weight of the control group.

P388 cells = experiment: in vitro Antitumor Test on P388 Cells (Mouse Leukemic Cells), MTT, 3 days; format: cell-based; conditions: 72 h, 3 days incubation
Experimental: P388 cells suspended in RPMI1640 medium (manufactured by Sanko Junyaku) containing 10% of fetal calf serum, (100 U/ml) of penicillin, 100 μg/ml of streptomycin, 5×10^-5 M of mercaptoethanol and 1 mM of sodium pyruvate were pipetted into a 96-well U-bottomed microplate at a ratio of 1.25×10^3 cells (0.1 ml) per well and incubated in a incubator containing 5% of carbon dioxide at 37° C. for a day. A compound of the present invention was dissolved in dimethyl sulfoxide to give a concentration of 10^-2 M and then diluted with the 10% fetal calf serum-containing RPMI1640 culture medium to give a concentration of 10^-4 or 10^-5 M. By taking this concentration as the maximal level, threefold serial dilution was effected with the use of the 10% fetal calf serum-containing RPMI1640 culture medium. Then these dilutions were added to the P388 incubation plate as described above at a ratio of 0.1 ml per well followed by incubation in an incubator containing 5% of carbon dioxide at 37° C. for 3 days. After the completion of the incubation, 0.05 ml/well of a 3.3 mg/ml solution of MTT [3-(4,5-dimethylthiazol-2-yl)-2,5-diphenyltetrazolium bromide] was added thereto and the incubation was continued for additional 2 hours. The microplate was centrifuged and the supernatant was aspirated off from each well. Then the formazan thus formed was dissolved in 0.1 ml of dimethyl sulfoxide and the absorbance thereof at 540 nm measured with a microplate reader was taken as an indication of the viable cell count. In accordance with the following formula, the inhibitory ratio was calculated and the 50% inhibitory concentration (IC50) of the test compound was determined: [formula] wherein T means the absorbance of a well containing the test compound; and C means the absorbance of a well containing no test compound.

[3] = Drugs Fut., 17, 832 (1992), cited from earlier work
[4] = cited from earlier work
[5] = Farmaco, 47, 1035 (1992), J. Med. Chem., 37, 593 (1994)
[6] = q7d × 3, read-out: Survival rate on the judgement day (22th day)
[7] = q7d × 3, tumor weight day 22, read-out: Proliferation inhibitory ratio (%)
[8] = read-out: Survival rate on the judgement day (21th day)
[9] = tumor weight day 21, read-out: Proliferation inhibitory ratio (%)

For `CN(C)CCn1c(=O)c2cccc3c4c5ccccc5ccc4n(c1=O)c23` [Example 1, 5-[2-(Dimethylamino)ethyl]-4H-benzo[c]pyrimido[5,6,1-jk]carbazole-4,6(5H)-dione hydrochloride], the responders at 25 mg/kg ([1]; q4d × 4, read-out: Survival rate on the judgement day (22th day)) was 100%, the inhibition in vivo at 25 mg/kg ([1]; q4d × 4, tumor weight day 22, read-out: Proliferation inhibitory ratio (%)) was 48% and the survival rate on day 21 at 50 mg/kg ([2]; 50 mg/kg/day, d1,2,3,4 after transplantation, read-out: Survival rate on the judgement day (21th day)) was 100%. For the same molecule, the inhibition in vivo at 50 mg/kg ([2]; 50 mg/kg/day, d1,2,3,4 after transplantation, tumor weight day 21, read-out: Proliferation inhibitory ratio (%)) was 95.2% and the IC50 (P388 cells) was 290 nM.

In the case of `CN(C)CCN1C(=O)c2cccc3cc(N)cc(c23)C1=O` [amonafide, 5-amino-2-[2-(dimethylamino)ethyl]-1H-benz[de]isoquinoline-1,3(2H)-dione], the “efficacy in clinical tests” value [3] is given as “poor efficacy in clinical tests” and the bone marrow toxicity ([3]; clinical tests) is given as “strong bone marrow toxicity”.

In the case of `CN(C)CCn1c(=O)c2cccc3c(=O)c4ccccc4n(c1=O)c32` [2-[2-(dimethylamino)ethyl]pyrimid[5,6,1-de]acridine-1,3,7-trione], the “antitumor activity in preclinical tests” value [4, 5] is listed as “only a weak antitumor activity in preclinical tests”.

With `CN(C)CCn1c(=O)c2cccc3c4c5c(ccc4n(c1=O)c23)C(=O)CO5` [Example 8, 8-[2-(Dimethylamino)ethyl]-7H-furo[3,2-c]pyrimido[5,6,1-jk]carbazole-3,7,9(2H,8H)-trione hydrochloride] the responders at 25 mg/kg [1, 6] was 100%, the inhibition in vivo at 25 mg/kg [1, 7] was 94% and the survival rate on day 21 at 30 mg/kg ([2]; 30 mg/kg/day, d1,8,15 after transplantation, read-out: Survival rate on the judgement day (21th day)) was 100%. The inhibition in vivo at 30 mg/kg ([2]; 30 mg/kg/day, d1,8,15 after transplantation, tumor weight day 21, read-out: Proliferation inhibitory ratio (%)) was 99.9% and the IC50 (P388 cells) was 340 nM.

In the case of “2,3-dihydro-2-[2-(dimethylamino)ethyl]-1H,7H-naphthylidino[3,2,1-ij]quinazoline-1,3,7(2H)-trione”, the “antitumor activity in preclinical tests” value [4, 5] is given as “only a weak antitumor activity in preclinical tests”.

For `CC(=O)c1ccc2c(ccc3c2c2cccc4c(=O)n(CCN(C)C)c(=O)n3c42)c1` [Example 2, 11-Acetyl-5-[2-(dimethylamino)ethyl]-4H-benzo[c]pyrimido[5,6,1-jk]carbazole-4,6(5H)-dione hydrochloride], the responders at 25 mg/kg [1, 6] was 100%, the inhibition in vivo at 25 mg/kg [1, 7] was 63.3% and the survival rate on day 21 at 25 mg/kg [2, 8] was 100%. It also gave an inhibition in vivo at 25 mg/kg [2, 9] of 91.4% and an IC50 (P388 cells) of 70 nM.

With `CN(C)CCn1c(=O)c2cccc3c4c5c(ccc4n(c1=O)c23)C(=O)CCC5` [Example 4, 12,13-Dihydro-5-[2-(dimethylamino)ethyl]-4H-benzo[c]pyrimido[5,6,1-jk]carbazole-4,6,10(5H,11H)-trione hydrochloride] the responders at 15 mg/kg ([1]; 15 mg/kg/day, q7d × 3, read-out: Survival rate on the judgement day (22th day)) was 100%, the inhibition in vivo at 15 mg/kg ([1]; 15 mg/kg/day, q7d × 3, tumor weight day 22, read-out: Proliferation inhibitory ratio (%)) was 98.4% and the survival rate on day 21 at 12.5 mg/kg ([2]; 12.5 mg/kg/day, d1,8,15 after transplantation, read-out: Survival rate on the judgement day (21th day)) was 100%. The inhibition in vivo at 12.5 mg/kg ([2]; 12.5 mg/kg/day, d1,8,15 after transplantation, tumor weight day 21, read-out: Proliferation inhibitory ratio (%)) was 100%, the survival rate on day 21 at 25 mg/kg [2, 8] was 100% and the inhibition in vivo at 25 mg/kg [2, 9] was 89.2%. For the same molecule, the IC50 (P388 cells) was 30 nM.

In the case of `CN(C)CCN1C(=O)c2cccc3cc4ccccc4c(c23)C1=O` [azonafide, 2-[2'-(dimethylamino)ethyl]-1,2-dihydro-3H-dibenz(deh)-isoquinoline-1,3-dione], the “antitumor activity in preclinical tests” value ([4]; compared with amonafide, WO9200281) is listed as “enhance the antitumor activity in preclinical tests”.

Molecule `CC(O)c1ccc2c(ccc3c2c2cccc4c(=O)n(CCN(C)C)c(=O)n3c42)c1` (centres unmarked) [Example 3, 5-[2-(Dimethylamino)ethyl]-11-(1-hydroxyethyl)-4H-benzo[c]pyrimido[5,6,1-jk]carbazole-4,6(5H)-dione hydrochloride] has a responders at 20 mg/kg ([1]; 20 mg/kg/day, q7d × 3, read-out: Survival rate on the judgement day (22th day)) of 100%, an inhibition in vivo at 20 mg/kg ([1]; 20 mg/kg/day, q7d × 3, tumor weight day 22, read-out: Proliferation inhibitory ratio (%)) of 55.7% and a survival rate on day 21 at 25 mg/kg [2, 8] of 100%. For the same molecule, the inhibition in vivo at 25 mg/kg [2, 9] was 90% and the IC50 (P388 cells) was 26 nM.
